One may read the IC50 as the concentration that gives 50% inhibition. Read a high IC50 as lower potency.

A value given as a limit tells only on which side of the number the result lay.

The target of one assay is T1, GPIIb-IIIa (Homo sapiens, UniProt P05106+P08514).
T1 construct: Purified platelet GPIIb-IIIa receptor was prepared as described by Fitzgerald, L.A., et al; from tissue; host or cells: platelets (purified by the method of Fitzgerald et al., Anal Biochem 1985)
Description: GPIIb-IIIa ELISA assay (inhibition of fibrinogen binding to immobilized receptor). The settings on record: purified platelet GPIIb-IIIa coated on plates; biotinylated fibrinogen 10 nM; 3 hours at 25 °C. How it is done: In the following assay, GPllb-Illa is prepared in purified form, by a method such as described by Fitzgerald, L.A., et al., Anal Biochem (1985) 151:159-177,(the disclosure of which is incorporated herein by reference). GPIIb-IIIa is coated onto microtiter plates. The coated support is then contacted with fibrinogen and with the test material and incubated for a sufficient time to permit maximal binding of fibrinogen to the immobilized GPIIb-IIIa. Fibrinogen is typically provided at a concentration of about 5-50 nM and the test material can, if desired, be added at a series of dilution. Typical incubations are 2-4 hr at 25°C, the time and temperature being interdependent.
After incubation, the solution containing the fibrinogen and test material is removed and the level of binding of fibrinogen measured by quantitating bound fibrinogen to GPllb-llla. Any suitable means of detection may be used, but it is convenient to employ labeled fibrinogen, for example using biotinylated labels. Such methods are well known in the art.
Purified platelet GPIIb-IIIa receptor was prepared as described by Fitzgerald, L.A., et al., Anal Biochem (1985) 151:169-177. Vitronectin receptor was prepared as described by Smith, J.W., J. Bioi Chem (1988) 263:18726-18731. After purification, the receptors were stored in 0.1% Triton X-100 at 0.1-1.0 mg/ml.
The receptors were coated to the wells of 96-well flat-bottom ELISA plates (Linbro EIA-Plus microtiter plate, Flow Laboratories) after diluting 1:200 with a solution of 20 mM Tris-HCI, 150 MM NaCi, 1 mM CaCl2, pH 7.4, to reduce the Triton x-100 concentration to below its critical micellar concentration and adding an aliquot of 100 ul to each well. The wells were all allowed to incubate overnight at 4°C, and then aspirated to dryness. Additional sites were blocked by the addition of bovine serum albumin (BSA) at 35 mg/ml in the above buffer for 2 hours at 30°C to prevent nonspecific binding. The wells were then washed once with binding buffer ([…] Tris-HCI, 100 mM Nacl 2 mM CaC12, 1 mg/ml BSA).
The corresponding ligands (fibrinogen, von Willebrand Factor, orvitronectin) were conjugated to biotin using commercially available reagents and standard protocols. The labeled ligands were added to the receptor- coated wells at final concentration of 10 nM (100 ul/well) and incubated for 3 hours at 25 °C in the presence or absence of the test samples. After incubation, the wells are aspirated to dryness and bound ligand is quan- titated.
The bound protein is detected by the addition of antibiotin antibody conjugated to alkaline phosphatase followed by addition of substrate (p-nitrcphenyl phosphate), and determination of the optical density of each well at 405 nM. Decreased color development is observed in wells incubated with test samples which inhibit binding of ligand to receptor.
(In general: ELISA stands for enzyme-linked immunosorbent assay.)

For assay [1], the system named is human platelet-rich plasma. Description: Platelet aggregation assay (PRP), Aggregation-Human/PRP/ADP. Format: cell-based. The following applies: 1 min, 1 minute at 37°C before aggregating agent, most often ADP 5 µM. How it is done:
In addition to the ELISA GPllb-Illa assay previously described the Aggregation-Human/PRP/ADP Assay is useful for evaluating therapeutic compounds.
Platelet-rich plasma was prepared from healthy human volunteers for use in determining inhibition of platelet aggregation by the compounds. Blood was collected via a 21 gauge butterfly cannula, using a two-syringe technique into 1/10 volume of 10% trisodium citrate.
Platelet-rich plasma was prepared at room temperature by centrifugation of the citrated whole blood at 100 x g for 15 minutes. The platelet rich plasma contained approximately 200-400,000 platelets/µl.
Platelet-poor plasma was prepared by centrifugation of citrated whole blood at 12,000 x g for 2 minutes.
Platelet aggregation was assayed in a 4-channel platelet aggregation profiler (PAP-4, Biodata, Hatboro, PA) according to the manufacturers directions. Inhibition of platelet aggregation was studied by adding varying amounts of test compounds to stirred human platelet-rich plasma. Specifically, the human platelet-rich plasma was incubated with test compounds for 1 minute at 37°C prior to the addition of a variety of aggregating agents most often ADP 5 µM, but also 1 µg/ml collagen, 1 µM U46619 or 1 µM platelet activating factor.

T1 sequence (P08514 32-887 limits assumed): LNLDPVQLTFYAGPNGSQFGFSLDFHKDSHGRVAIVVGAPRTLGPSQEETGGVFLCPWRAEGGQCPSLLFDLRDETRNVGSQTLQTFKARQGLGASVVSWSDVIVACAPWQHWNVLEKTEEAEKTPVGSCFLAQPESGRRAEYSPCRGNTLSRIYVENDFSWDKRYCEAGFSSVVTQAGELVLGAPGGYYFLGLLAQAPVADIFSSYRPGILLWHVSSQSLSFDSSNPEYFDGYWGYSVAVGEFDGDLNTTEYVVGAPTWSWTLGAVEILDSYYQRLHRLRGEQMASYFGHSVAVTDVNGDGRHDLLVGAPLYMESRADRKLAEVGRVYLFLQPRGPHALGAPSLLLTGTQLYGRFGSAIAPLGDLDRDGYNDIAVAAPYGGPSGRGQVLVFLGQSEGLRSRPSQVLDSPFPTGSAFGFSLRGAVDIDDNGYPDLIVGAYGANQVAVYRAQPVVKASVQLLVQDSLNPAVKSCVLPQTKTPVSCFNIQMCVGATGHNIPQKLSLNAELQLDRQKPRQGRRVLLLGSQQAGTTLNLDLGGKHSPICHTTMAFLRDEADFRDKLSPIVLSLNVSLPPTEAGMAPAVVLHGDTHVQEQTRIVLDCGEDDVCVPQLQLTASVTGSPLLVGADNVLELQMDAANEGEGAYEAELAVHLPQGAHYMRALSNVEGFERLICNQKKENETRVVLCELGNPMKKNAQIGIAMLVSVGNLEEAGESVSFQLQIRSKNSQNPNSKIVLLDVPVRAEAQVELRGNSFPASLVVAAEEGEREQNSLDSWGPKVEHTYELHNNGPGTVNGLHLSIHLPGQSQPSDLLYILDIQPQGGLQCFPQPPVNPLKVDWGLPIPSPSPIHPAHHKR
T1 sequence (P08514 891-1039 partner limits assumed): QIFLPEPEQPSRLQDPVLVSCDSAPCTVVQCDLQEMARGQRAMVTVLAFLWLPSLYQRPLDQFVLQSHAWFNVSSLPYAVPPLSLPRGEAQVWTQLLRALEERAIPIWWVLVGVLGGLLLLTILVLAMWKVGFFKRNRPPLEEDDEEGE
T1 sequence (P05106 27-788): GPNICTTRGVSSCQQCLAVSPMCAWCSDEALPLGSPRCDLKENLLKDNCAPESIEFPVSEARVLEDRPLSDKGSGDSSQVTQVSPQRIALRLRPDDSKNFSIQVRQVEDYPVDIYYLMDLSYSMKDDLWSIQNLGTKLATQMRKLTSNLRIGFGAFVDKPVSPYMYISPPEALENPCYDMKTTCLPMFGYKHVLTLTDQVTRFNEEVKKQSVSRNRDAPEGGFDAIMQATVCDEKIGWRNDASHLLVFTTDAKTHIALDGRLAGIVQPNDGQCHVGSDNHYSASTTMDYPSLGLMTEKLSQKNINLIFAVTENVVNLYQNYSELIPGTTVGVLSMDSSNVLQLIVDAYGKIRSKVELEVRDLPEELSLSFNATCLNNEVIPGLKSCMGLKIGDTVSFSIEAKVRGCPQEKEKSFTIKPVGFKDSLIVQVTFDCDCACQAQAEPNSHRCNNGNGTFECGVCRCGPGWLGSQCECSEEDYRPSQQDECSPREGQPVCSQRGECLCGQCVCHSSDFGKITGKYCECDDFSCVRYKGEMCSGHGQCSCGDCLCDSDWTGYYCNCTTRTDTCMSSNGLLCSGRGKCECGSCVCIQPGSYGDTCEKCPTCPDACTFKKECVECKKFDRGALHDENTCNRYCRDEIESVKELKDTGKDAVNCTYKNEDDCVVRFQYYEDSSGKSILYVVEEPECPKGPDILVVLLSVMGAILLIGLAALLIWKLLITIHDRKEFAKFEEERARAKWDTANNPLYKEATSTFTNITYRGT

Consider `N=C(N)c1ccc2[nH]c(C(=O)NCc3ccc(CCC(=O)O)cc3)cc2c1` [Example 9], for which the IC50 at GPIIb-IIIa amounted to 4450 nM; in assay [1], 40 µM. Taken in the same sequence, the figures for `CCCC(CC1CCC(CNC(=O)c2cc3cc(C(=N)N)ccc3[nH]2)CC1)C(=O)O` (stereo not drawn) [Example 11] were more than 100000 nM and more than 100 µM. Regarding `N=C(N)c1ccc2[nH]c(C(=O)NCCOCCCC(=O)O)cc2c1` [Example 12], the IC50 was found to be 1200 nM at GPIIb-IIIa and 9 µM in assay [1]. In the case of `CC(CCCCCNC(=O)c1cc2cc(C(=N)N)ccc2[nH]1)C(=O)O` (stereo not drawn) [Example 13], the IC50 on GPIIb-IIIa was determined as 5250 nM; in assay [1], 28 µM. On the same counts, the results for `CCC(CCCCCNC(=O)c1cc2cc(C(=N)N)ccc2[nH]1)C(=O)O` (stereo not drawn) [Example 14] are 21500 nM and more than 100 µM. For `CCCCCCC(CCCCCNC(=O)c1cc2cc(C(=N)N)ccc2[nH]1)C(=O)O` (stereo not drawn) [Example 16], the figures for the IC50 (on GPIIb-IIIa; in assay [1]) were 19000 nM and more than 100 µM, respectively.

Turning to `CC(CCCCNC(=O)c1cc2cc(C(=N)N)ccc2[nH]1)CC(=O)O` (stereo not drawn) [Example 17], the values for the IC50 (at GPIIb-IIIa; in assay [1]) were 210 nM and 2.7 µM, respectively. On the same counts, the results for `CCC(CCCCNC(=O)c1cc2cc(C(=N)N)ccc2[nH]1)CC(=O)O` (stereo not drawn) [Example 18] are 330 nM and 5.8 µM.

`CCCCC(CCCCNC(=O)c1cc2cc(C(=N)N)ccc2[nH]1)CC(=O)O` (stereo not drawn) [Example 19]: the IC50 on GPIIb-IIIa stood at 630 nM; in assay [1], 30 µM. Taken in the same sequence, the figures for `CCCCCCC(CCCCNC(=O)c1cc2cc(C(=N)N)ccc2[nH]1)CC(=O)O` (stereo not drawn) [Example 20] were 800 nM and 70 µM. For `CN(CCCCCCC(=O)O)C(=O)c1cc2cc(C(=N)N)ccc2[nH]1` [Example 21], the figures for the IC50 (at GPIIb-IIIa; in assay [1]) were 380 nM and 2.5 µM, respectively. On the same counts, the results for `N=C(N)c1ccc2oc(C(=O)NCCCCCCC(=O)O)cc2c1` [Example 22] are 40 nM and 0.27 µM.

Take `N=C(N)c1ccc2sc(C(=O)NCCCCCCC(=O)O)cc2c1` [Example 23]: the figures for the IC50 (on GPIIb-IIIa; in assay [1]) were 740 nM and 9 µM, respectively.

Consider `N=C(N)c1ccc2cc(C(=O)NCCCCCCC(=O)O)[nH]c2c1` [Example 25], for which the IC50 on GPIIb-IIIa stood at 130 nM; in assay [1], 0.8 µM. On to `N=C(N)c1ccc2[nH]c(C(=O)NCCCCCCC(=O)O)cc2c1` [Example 26], for which the figures for the IC50 (at GPIIb-IIIa; in assay [1]) were 700 nM and 2.7 µM, respectively. As for `N=C(N)c1ccc2[nH]c(C(=O)NCCCCC(=O)O)cc2c1` [Example 27], the IC50 in assay [1] came out at 100 µM. On to `N=C(N)c1ccc2[nH]c(C(=O)NCCCCCC(=O)O)cc2c1` [Example 28], for which the IC50 at GPIIb-IIIa was 42700 nM; in assay [1], 100 µM. Consider `Cn1c(C(=O)NCCCCCCC(=O)O)cc2cc(C(=N)N)ccc21` [Example 30], for which the results for the IC50 (on GPIIb-IIIa; in assay [1]) were 3000 nM and 8 µM, respectively.

Regarding `CC(CCCCNC(=O)c1cc2cc(C(=N)N)ccc2s1)CC(=O)O` (stereo not drawn) [Example 31], the concentration for half-maximal inhibition (IC50) on GPIIb-IIIa was 320 nM; in assay [1] it was 3.3 µM. On the same counts, the results for `CC(CCCCNC(=O)c1cc2cc(C(=N)N)ccc2o1)CC(=O)O` (stereo not drawn) [Example 32] are 10 nM and 0.23 µM.

Take `Cc1c(C(=O)NCCCCCCC(=O)O)[nH]c2ccc(C(=N)N)cc12` [Example 33]: the IC50 on GPIIb-IIIa stood at 2600 nM; in assay [1] it was 5 µM. Taken in the same sequence, the figures for `N=C(N)c1ccc(COc2ccc3oc(C(=O)NCC(=O)O)cc3c2)cc1` [Example 35] were 3400 nM and 100 µM. On the same counts, the results for `NCc1ccc2[nH]c(C(=O)NCCCCCCC(=O)O)cc2c1` [Example 36] are 4230 nM and 25 µM.
